Assay results taken from patent publication US12257243B2, “5-hydroxy-7-oxabicyclo[2.2.1]heptane-2-carboxamide derivatives for inducing chondrogenesis for treating joint damage” (NOVARTIS AG, priority 2018, dated 2025).
Like-named read-outs stand apart in the source and are kept apart here.

Target: ALP in normal human articular chondrocytes (NHACs)
Experiment: Alkaline Phosphatase (ALP) activity assay (staining and quantitation) in NHACs, prevention of chondrocyte hypertrophy
Format: cell-based
Conditions: human IL-1 beta 10 ng/mL, 12 days; for IC50: Fast Blue RR staining, high content imaging, read-out: ALP in NHAC IC50; for ALP in NHAC (% Efficacy) / Emax: value in parentheses; for Emax: read-out: ALP in NHAC (% Efficacy)
Outline: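 Primary human articular chondrocytes plated at 7,500 cells/well in DMEM with 10% FBS alongside test compound, incubated 5 h at 37 °C, then given IL-1β (10 ng/mL final) for 12 days. Fixed cells stained for ALP with Fast Blue RR/naphthol AS-MX, Hoechst counterstain. Read by fluorescence imaging (561 nm) and/or high-content cell scoring.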

Row | Structure (SMILES) | IC50 [µM] | ALP in NHAC (% Efficacy) [%] | IC50 (Chondrocyte, 288 h) [µM] | Emax (Chondrocyte, 288 h) [%]
1 | Cn1cc([C@H]2[C@H]3O[C@H](C[C@@H]3O)[C@@H]2C(=O)Nc2cc(C(F)(F)F)c(Cl)cn2)c(C(F)(F)F)n1 (single isomer, unassigned) [Example 36b, (1R 2R,3S,4R,5S)—N-(5-chloro-4-(trifluoromethyl)pyridin-2-yl)-5-hydroxy-3-(1-methyl-3-(trifluoromethyl)-1H-pyrazol-4-yl)-7-oxabicyclo[2.2.1]heptane-2-carboxamide or (1S,2S,3R,4S,5R)—N-(5-chloro-4-(trifluoromethyl)pyridin-2-yl)-5-hydroxy-3-(1-methyl-3-(trifluoromethyl)-1H-pyrazol-4-yl)-7-oxabicyclo[2.2.1]heptane-2-carboxamide] | 17 | 83 |  | 
2 | Cn1nc(C(F)(F)F)cc1[C@H]1[C@H]2O[C@H](C[C@@H]2O)[C@@H]1C(=O)Nc1ccc(C(F)(F)F)cc1 (racemic) [Example 62, rac-(1R,2R,3S,4R,5S)-5-hydroxy-3-(1-methyl-3-(trifluoromethyl)-1H-pyrazol-5-yl)-N-(4-(trifluoromethyl)phenyl)-7-oxabicyclo[2.2.1]heptane-2-carboxamide] |  |  | 16 | 73
3 | Cc1ccc(NC(=O)[C@@H]2[C@@H](c3cccc(C(F)(F)F)c3)[C@H]3O[C@@H]2C[C@@H]3O)cc1C(F)(F)F (racemic) [Example 12, rac-(1R,2R,3S,4R,5S)-5-hydroxy-N-(4-methyl-3-trifluoromethylphenyl)-3-(3-(trifluoromethyl)phenyl)-7-oxabicyclo[2.2.1]heptane-2-carboxamide] |  |  | 9.8 | 102
4 | O=C(Nc1ccc(C(F)(F)F)c(Cl)n1)[C@@H]1[C@@H](c2cccc(C(F)(F)F)c2)[C@H]2O[C@@H]1C[C@@H]2O (racemic) [Example 25, rac-(1R,2R,3S,4R,5S)—N-(6-chloro-5-(trifluoromethyl)pyridin-2-yl)-5-hydroxy-3-(3-(trifluoromethyl)phenyl)-7-oxabicyclo[2.2.1]heptane-2-carboxamide] |  |  | 2.9 | 112
5 | Cc1ccc(C(F)(F)F)cc1NC(=O)[C@@H]1[C@@H](c2cccc(C(F)(F)F)c2)[C@H]2O[C@@H]1C[C@@H]2O (racemic) [Example 14, rac-(1R,2R,3S,4R,5S)-5-hydroxy-N-(2-methyl-5-(trifluoromethyl)phenyl)-3-(3-(trifluoromethyl)phenyl)-7-oxabicyclo[2.2.1]heptane-2-carboxamide] |  |  | 13 | 78
6 | Cc1cc(NC(=O)[C@@H]2[C@@H](c3cccc(C(F)(F)F)c3)[C@H]3O[C@@H]2C[C@@H]3O)cnc1C(F)(F)F (racemic) [Example 28, rac-(1R,2R,3S,4R,5S)-5-hydroxy-N-(5-methyl-6-(trifluoromethyl)pyridin-3-yl)-3-(3-(trifluoromethyl)phenyl)-7-oxabicyclo[2.2.1]heptane-2-carboxamide] |  |  | 6 | 98
7 | Cn1cc([C@H]2[C@H]3O[C@H](C[C@@H]3O)[C@@H]2C(=O)Nc2cccc(C(F)(F)F)c2F)c(C(F)(F)F)n1 (racemic) [Example 57, rac-(1R,2R,3S,4R,5S)—N-(2-fluoro-3-(trifluoromethyl)phenyl)-5-hydroxy-3-(1-methyl-3-(trifluoromethyl-1H-pyrazol-4-yl)-7-oxabicyclo[2.2.1]heptane-2-carboxamide] |  |  | > 30 | 50
8 | COc1cc([C@H]2[C@H]3O[C@H](C[C@@H]3O)[C@@H]2C(=O)Nc2ccc(C(F)(F)F)cc2)ccn1 (racemic) [Example 67, rac-(1R,2R,3S,4R,5S)-5-hydroxy-3-(2-methoxypyridin-4-yl)-N-(4-(trifluoromethyl)phenyl)-7-oxabicyclo[2.2.1]heptane-2-carboxamide] |  |  | > 30 | 27
9 | Cn1nc(C(F)(F)F)cc1[C@H]1[C@H]2O[C@H](C[C@@H]2O)[C@@H]1C(=O)Nc1cccc(C(F)(F)F)c1 (racemic) [Example 61, rac-(1R,2R,3S,4R,5S)-5-hydroxy-3-(1-methyl-3-(trifluoromethyl)-1H-pyrazol-5-yl)-N-(3-(trifluoromethyl)phenyl)-7-oxabicyclo[2.2.1]heptane-2-carboxamide] |  |  | 21 | 46
10 | O=C(Nc1cc(C(F)(F)F)c(Cl)cn1)[C@@H]1[C@@H](c2cccc(C(F)(F)F)c2)[C@H]2O[C@@H]1C[C@@H]2O (racemic) [Example 6, rac-(1R,2R,3S,4R 5S)—N-(5-chloro-4-(trifluoromethyl)pyridin-2-yl)-5-hydroxy-3-(3-(trifluoromethyl)phenyl)-7-oxabicyclo[2.2.1]heptane-2-carboxamide] |  |  | > 30 | 38
11 | Cc1ccc(C(F)(F)F)cc1NC(=O)[C@@H]1[C@@H](c2cn(C)nc2C(F)(F)F)[C@H]2O[C@@H]1C[C@@H]2O (racemic) [Example 54, rac-(1R,2R,3S,4R,5S)-5-hydroxy-3-(1-methyl-3-(trifluoromethyl)-1H-pyrazol-4-yl)-N-(2-methyl-5-(trifluoromethyl)phenyl)-7-oxabicyclo[2.2.1]heptane-2-carboxamide] |  |  | 4.1 | 52
12 | Cn1cc([C@H]2[C@H]3O[C@H](C[C@@H]3O)[C@@H]2C(=O)Nc2ccc(C(F)(F)F)c(F)c2)c(C(F)(F)F)n1 (racemic) [Example 55, rac-(1R,2R,3S,4R,5S)—N-(3-fluoro-4-(trifluoromethylphenyl)-5-hydroxy-3-(1-methyl-3-(trifluoromethyl)-1H-pyrazol-4-yl)-7-oxabicyclo[2.2.1]heptane-2-carboxamide] |  |  | 16 | 65
13 | CC(C)n1cc([C@H]2[C@H]3O[C@H](C[C@@H]3O)[C@@H]2C(=O)Nc2cc(C(F)(F)F)ccn2)c(C(F)(F)F)n1 (racemic) [Example 86, rac-(1R,2R,3S,4R,5S)-5-hydroxy-3-(1-isopropyl-3-(trifluoromethyl)-1H-pyrazol-4-yl)-N-(4-(trifluoromethyl)pyridin-2-yl)-7-oxabicyclo[2.2.1]heptane-2-carboxamide] |  |  | 11 | 83
14 | Cn1cc([C@H]2[C@H]3O[C@H](C[C@@H]3O)[C@@H]2C(=O)Nc2cccc(C(F)(F)F)c2)c(C(F)(F)F)n1 (single isomer, unassigned) [Example 32b, (1R,2R,3S,4R,5S)-5-hydroxy-3-(1-methyl-3-(trifluoromethyl)-1H-pyrazol-4-yl)-N-(3-(trifluoromethyl)phenyl)-7-oxabicyclo[2.2.1]heptane-2-carboxamide or (1S,2S,3R,4S,5R)-5-hydroxy-3-(1-methyl-3-(trifluoromethyl)-1H-pyrazol-4-yl)-N-(3-(trifluoromethyl)phenyl)-7-oxabicyclo[2.2.1]heptane-2-carboxamide] | 16 | 109 |  | 
15 | Cn1cc([C@H]2[C@H]3O[C@H](C[C@@H]3O)[C@@H]2C(=O)Nc2ccc(Cl)c(C(F)(F)F)c2)c(C(F)(F)F)n1 (racemic) [Example 53, rac-(1R,2R,3S,4R,5S)—N-(4-chloro-3-(trifluoromethyl)phenyl)-5-hydroxy-3-(1-methyl-3-(trifluoromethyl)-1H-pyrazol-4-yl)-7-oxabicyclo[2.2.1]heptane-2-carboxamide] |  |  | 7.2 | 86
16 | Cn1nc(C(F)(F)F)cc1[C@H]1[C@H]2O[C@H](C[C@@H]2O)[C@@H]1C(=O)Nc1ccc(C(F)(F)F)c(Cl)c1 (racemic) [Example 73, rac-(1R,2R,3S,4R,5)-N-(3-chloro-4-trifluoromethyl)phenyl)-5-hydroxy-3-(1-methyl-3-(trifluoromethyl)-1H-pyrazol-5-yl)-7-oxabicyclo[2.2.1]heptane-2-carboxamide] |  |  | 7.1 | 105
17 | Cn1cc([C@H]2[C@H]3O[C@H](C[C@@H]3O)[C@@H]2C(=O)Nc2cc(C(F)(F)F)ccc2C#N)c(C(F)(F)F)n1 (single isomer, unassigned) [Example 49b, (1R,2R,3S,4R,5N-(2-cyano-5-(trifluoromethyl)phenyl)-5-hydroxy-3-(1-methyl-3-(trifluoromethyl)-1H-pyrazol-4-yl)-7-oxabicyclo[2.2.1]heptane-2-carboxamide or (1S,2S,3R,4S,5R)—N-(2-cyano-5-(trifluoromethyl)phenyl)-5-hydroxy-3-(1-methyl-3-(trifluoromethyl)-1H-pyrazol-4-yl)-7-oxabicyclo[2.2.1]heptane-2-carboxamide] | 23 | 54 |  | 
18 | N#Cc1ccc(C(F)(F)F)cc1NC(=O)[C@@H]1[C@@H](c2cccc(C(F)(F)F)c2)[C@H]2O[C@@H]1C[C@@H]2O (racemic) [Example 48, rac-(1R,2R,3S,4R,5S)—N-(2-cyano-5-(trifluoromethyl)phenyl)-5-hydroxy-3-(3-(trifluoromethyl)phenyl)-7-oxabicyclo[2.2.1]heptane-2-carboxamide] |  |  | 0.088 | 92
19 | O=C(Nc1ccc(C(F)(F)F)cc1)[C@@H]1[C@@H](c2ccnc(C(F)(F)F)c2)[C@H]2O[C@@H]1C[C@@H]2O (racemic) [Example 66, rac-(1R,2R,3S,4R,5S)-5-hydroxy-N-(4-(trifluoromethyl)phenyl)-3-(2-(trifluoromethyl)pyridin-4-yl)-7-oxabicyclo[2.2.1]heptane-2-carboxamide] |  |  | 15 | 66
20 | O=C(Nc1cccc(C(F)(F)F)c1)[C@@H]1[C@@H](c2ccc(C(F)(F)F)nc2)[C@H]2O[C@@H]1C[C@@H]2O (racemic) [Example 82, rac-(1R,2R,3S,4R,5S)-5-hydroxy-N-(3-(trifluoromethyl)phenyl)-3-(6-(trifluoromethyl)pyridin-3-yl)-7-oxabicyclo[2.2.1]heptane-2-carboxamide] |  |  | 4.6 | 78
